Measurements published in patent publication US7989451B2, “Tricyclic 1,2,4-triazine oxides and compositions for therapeutic use in cancer treatments” (Auckland Uniservices Limited, priority 2005, dated 2011).
Read-outs that look alike come from different tables or passages of the source.

How the values were obtained:
[1] = tested on: human colon carcinoma HT29; assay: Proliferation assay (IC50) under aerobic and hypoxic conditions, HT29; format: cell-based; settings: for IC50: Homo sapiens, 4 h drug exposure, sulforhodamine B; for HCR: hypoxic cytotoxicity ratio = IC50 aerobic/IC50 hypoxic
Experimental: (§1) Compounds representative of the invention were evaluated under both aerobic and hypoxic conditions in a proliferation assay (IC50), using two cell lines: human colon carcinoma HT29, and human cervical carcinoma SiHa (Table 1).
(§2) Drug exposures were performed in 96-well plates (Nunc) either using a 37 DC humidified incubator (20% O2, 5% CO2) or in the incubator compartment (37° C.) of an anaerobic chamber (Shell Lab) where palladium catalyst scrubbed gas (90% N2, 5% H2, 5% CO2) ensures severe anoxia (<0.001% O2). For each experiment, compounds were simultaneously tested under both oxic and hypoxic conditions and included TPZ as an internal control. An 8-methyl-5-nitroquinoline derivative, SN 24349, known to require very low oxygen concentrations for bioactivation (Siim et al., Br. J. Cancer 1994, 70, 596-603) was used to confirm that strict hypoxia was present during the experiment. […] Cell cultures were grown in αMEM (Gibco) containing 5% heat inactivated FCS and maintained in exponential growth phase. For each individual experiment an appropriate number of cells were seeded (HT29=1100; SiHa=1500) into wells in αMEM+10% FCS+10 mM added glucose+100 μM 2′-deoxycytidine (2′dCyd), and allowed to attach for 2-3 h. High glucose (final concentration 17 mM) and the presence of 2′-dCyd minimize hypoxia-induced cell cycle arrest. Cultures were then exposed to drugs, using 3-fold serial dilutions in duplicate, for a further 4 h. Subsequently cells were washed free of compound using complete media (without glucose/2′-dCyd) and allowed to grow for 5 (oxic) or 6 (anoxic) days. Plates were stained with sulforhodamine B as described previously (Wilson et al., J. Med. Chem. 1989, 32, 31-38) and IC50 values determined.
(§3) HCR=Hypoxic cytotoxicity ratio is defined as the ratio of IC50 values under aerobic and hypoxic conditions (IC50 aerobic/IC50 hypoxic).

[2] = tested on: human cervical carcinoma SiHa; assay: Proliferation assay (IC50) under aerobic and hypoxic conditions, SiHa; format: cell-based; settings: for IC50: Homo sapiens, 4 h drug exposure, sulforhodamine B; for HCR: hypoxic cytotoxicity ratio = IC50 aerobic/IC50 hypoxic
Experimental: as §1, §2, §3

[3] = HT-29, hypoxic (anaerobic chamber, <0.001% O2), then 6 days growth, read-out: IC50 (μM) hypoxic
[4] = HT-29, oxic (20% O2), then 5 days growth, read-out: IC50 (μM) oxic
[5] = hypoxic (anaerobic chamber, <0.001% O2), then 6 days growth, read-out: IC50 (μM) hypoxic
[6] = oxic (20% O2), then 5 days growth, read-out: IC50 (μM) oxic

| Compound | IC50 [1, 3] | IC50 [1, 4] | IC50 [2, 5] | IC50 [2, 6] | melting point | HCR [1] | HCR [2] |
| --- | --- | --- | --- | --- | --- | --- | --- |
| [O-][n+]1nc(CCCN2CCOCC2)[n+]([O-])c2cc3c(cc21)CC(CO)C3 (stereo not drawn) [Compound 141, {3-[3-(4-Morpholinyl)propyl]-1,4-dioxido-7,8-dihydro-6H-indeno[5,6-e][1,2,4]triazin-7-yl}methanol] | 2.4 ± 0.1 µM | 294 ± 34 µM | 1.8 ± 0.2 µM | 377 µM | 112 to 114 °C | 121 ± 14 | 206 |
| CCc1n[n+]([O-])c2cc3c(cc2[n+]1[O-])CC(CN1CCOCC1)C3 (stereo not drawn) [Compound 144, 3-Ethyl-7-(4-morpholinylmethyl)-7,8-dihydro-6H-indeno[5,6-e][1,2,4]triazine 1,4-Dioxide] | 4.8 ± 1.3 µM | 154 ± 51 µM | 2.4 ± 0.1 µM | 147 ± 37 µM | 164 to 165 °C | 31 ± 2 | 62 ± 19 |
| CCc1n[n+]([O-])c2cc3c(cc2[n+]1[O-])CC(CCO)C3 (stereo not drawn) [Compound 162, 2(3-Ethyl-1,4-dioxido-7,8-dihydro-6H-indeno[5,6-e][1,2,4]triazin-7-yl)ethanol] | 7.7 ± 1.2 µM | 717 ± 320 µM | 2.9 ± 0.4 µM | 283 µM | 152 to 155 °C | 102 ± 57 | 86 |
| CN(C)CCNc1n[n+]([O-])c2cc3c(cc2[n+]1[O-])CCCCC3 [Compound 189, N^1-(1,4-Dioxido-7,8,9,10-tetrahydro-6H-cyclohepta[g][1,2,4]benzotriazin-3-yl)-N^2,N^2-dimethyl-1,2-ethanediamine] | 5.2 ± 0.9 µM | 250 ± 119 µM | 1.2 ± 0.1 µM | 99 ± 32 µM | 131 to 133 °C | 54 ± 32 | 88 ± 32 |
| CN(C)CCNc1n[n+]([O-])c2cc3c(cc2[n+]1[O-])CCO3 [Compound 198, N^1-(1,4-Dioxido-6,7-dihydrofuro[3,2-g][1,2,4]benzotriazin-3-yl)-N^2,N^2-dimethyl-1,2-ethanediamine] | 2.4 ± 0.1 µM | 61 ± 6 µM | 0.3 ± 0.02 µM | 36 ± 10 µM | 149 to 151 °C | 23 ± 0.2 | 87 ± 9 |

Continued, in another order:

| IC50 [1, 3] | IC50 [1, 4] | IC50 [2, 5] | IC50 [2, 6] | melting point | Compound | HCR [1] | HCR [2] |
| --- | --- | --- | --- | --- | --- | --- | --- |
| 22 ± 4.2 µM | 177 ± 80 µM | 3.4 ± 0.8 µM | 90 ± 24 µM | 145 to 148 °C | [O-][n+]1nc(NCCCN2CCOCC2)[n+]([O-])c2cc3c(cc21)OCC3 [Compound 200, N-[3-(4-Morpholinyl)propyl]-6,7-dihydrofuro[3,2-g][1,2,4]benzotriazin-3-amine 1,4-Dioxide] | 8 ± 3 | 28 ± 6 |
| 117 µM | 495 µM | 23 µM | > 500 µM | > 300 °C (dec.) | Nc1n[n+]([O-])c2cc3c(cc2[n+]1[O-])OCC3 [Compound 205, 7,8-Dihydrofuro[2,3-g][1,2,4]benzotriazin-3-amine 1,4-Dioxide] | 4 |  |
| 5.2 ± 0.3 µM | 258 ± 207 µM | 1.9 ± 0.2 µM | 176 ± 70 µM | 186 to 189 °C | CN(C)CCNc1n[n+]([O-])c2cc3c(cc2[n+]1[O-])OCC3 [Compound 208, N^1-(1,4-Dioxido-7,8-dihydrofuro[2,3-g][1,2,4]benzotriazin-3-yl)-N^2,N^2-dimethyl-1,2-ethanediamine] | 46 ± 36 | 128 ± 3 |
| 9.6 ± 3.6 µM | 708 ± 178 µM | 3.4 ± 0.7 µM | 376 ± 10 µM | 187 to 190 °C | CCN(CC)CCNc1n[n+]([O-])c2cc3c(cc2[n+]1[O-])OCC3 [Compound 210, N^1-(1,4-Dioxido-7,8-dihydrofuro[2,3-g][1,2,4]benzotriazin-3-yl)-N^2,N^2-diethyl-1,2-ethanediamine] | 113 ± 53 | 122 ± 25 |
| 48.6 ± 12.2 µM | 225 ± 136 µM | 29.4 ± 4.2 µM | 355 ± 240 µM | 186 to 189 °C | [O-][n+]1nc(NCCCN2CCOCC2)[n+]([O-])c2cc3c(cc21)CCO3 [Compound 212, N-[3-(4-Morpholinyl)propyl]-7,8-dihydrofuro[2,3-g][1,2,4]benzotriazin-3-amine 1,4-Dioxide] | 6 ± 4 | 14 ± 10 |
